Laboratory results taken from PMC6290023 (Scientific Reports, 2018).
Square brackets hold non-standard residues; d marks the D form. Peptide text beside a SMILES is read from it.

What was measured:
LPS-stimulated MG6 cells [1] = test: LDH assay in LPS-stimulated MG6 cells; assay type: cell-based, mouse
[2] = Pharmacokinetics after intravenous injection 4 h after tMCAo (LC/MS/MS); assay type: in vivo; details: mouse, i.v. 2 mg/ml, 10 ml/kg in 0.45% saline
Procedure: MHP1-Ac or MHP1-AcN (2 mg/ml, 10 ml/kg in 0.45% saline) was administered intravenously 4 hrs after tMCAo and mouse plasma was collected at 5 min, 10 min, 20 min, 30 min, 45 min, 1 h, and 2 h after injection. Mouse plasma (C57BL6J, 10 µL) and water/phosphoric acid (24:1, v/v) (Solution B, 500 µL) were mixed together to prepare the plasma samples. The samples (510 µL) were then analyzed using LC/MS/MS to determine MHP1-Ac or MHP1-AcN in plasma. Mouse brain was weighed and mixed with a 4-fold volume of solution B and the mixture was homogenized to prepare the brain samples. The specific gravity of solution B was assumed to be 1. The brain samples (10 µL) were analyzed using LC/MS/MS to determine MHP1-Ac or MHP1-AcN in brain. MHP1-Ac and MHP1-AcN, and MHP1-N (internal standard), in the plasma samples and brain samples, were extracted using Oasis HLB μElution Plate (Waters). Chromatographic analysis was performed on an InertSustain C18 (2.1 mm I.D. ×50 mm, 3 µm, GL Sciences) column using the mobile phase A, water/formic acid (1000:1, v/v), and the mobile phase B, acetonitrile/formic acid (1000:1, v/v).

[3] = Dissolution in water and sedimentation in 0.45% saline at 37 °C for 24 h; assay type: physicochemical
Procedure: Synthetic MHP1 (NH2-[…]-COOH), MHP1-DN1 (NH2-LMVYVV-DLys-[…]-COOH), MHP1-DN2 (NH2-LMV-DTyr-[…]-COOH), MHP1-DN3 (NH2-L-DMet-[…]-COOH), MHP1-DC (NH2-LMVYVVKTSIKIPSSHNL-DMet-KGGSTKNWSGN-COOH), MHP1-Ac (Ac-[…]-COOH), MHP1-AcN (Ac-[…]-HN2), or MHP1-N (NH2-[…]-NH2) was purchased from ILS, Inc (Ibaraki, Tsukuba, Japan), dissolved in 1 or 2 mg/ml ddH2O and stored at 4 °C until use (Table 1).

LPS-stimulated MG6 cells [4] = test: Anti-inflammatory effect in LPS-stimulated MG6 cells (TNF-α / IL-6 ELISA); assay type: cell-based, mouse; details: LPS-stimulated MG6 cells; for inhibition of IL-6 expression compared with MHP1 / inhibition of TNF-α expression compared with MHP1: medium harvested 24 h after stimulation; for effect on expression of TNF-α: vs LPS-stimulated cells without treatment
Procedure: MG6 cells were obtained from RIKEN BRC (Tsukuba, Japan)[25],[26]. The MG6 cells were maintained in DMEM (Nakarai, Kyoto, Japan) supplemented with 10% FBS (Thermo Fisher Scientific, Waltham, MA, USA), 10 μg/ml insulin (Sigma-Aldrich, St. Louis, MO, USA) and 100 μM 2-mercaptoethanol (Sigma-Aldrich). These cells (1 × 10^5 cells) were plated in 96-well plastic culture dishes. After overnight incubation, the medium was replaced with DMEM supplemented with 4% FBS. LPS (Escherichia coli 0111: B4; Sigma-Aldrich, St. Louis, MO, USA) and MHP1 or modified MHP1 was added to the medium, which was then harvested at 24 h after stimulation. In the experiment checking the stability at 26 or 37 °C, MHP1-Ac or MHP1-AcN was incubated at 26 or 37 °C for 24 h before adding to the medium.
The concentrations of TNF-α and IL-6 were measured using commercially available ELISA kits: TNF-α, Quantikine Mouse TNF-α ELISA Kit (R&D systems); IL-6, Quantikine Mouse IL-6 ELISA Kit (R&D systems).

Mouse (CD-1(ICR)) serum = details: 37 °C, up to 60 min

Row | Compound | inhibition of IL-6 expression compared with MHP1 (LPS-stimulated MG6 cells [4]; ELISA) | inhibition of TNF-α expression compared with MHP1 (LPS-stimulated MG6 cells [4]; ELISA) | anti-inflammatory effects (LPS-stimulated MG6 cells [4]; 24 h, ELISA) | effect on expression of TNF-α (LPS-stimulated MG6 cells [4]; 24 h, ELISA) | other results
1 | CC[C@H](C)[C@H](NC(=O)[C@H](CO)NC(=O)[C@@H](NC(=O)[C@H](CCCCN)NC(=O)[C@@H](NC(=O)[C@@H](NC(=O)[C@H](Cc1ccc(O)cc1)NC(=O)[C@@H](NC(=O)[C@H](CCSC)NC(=O)[C@H](CC(C)C)NC(C)=O)C(C)C)C(C)C)C(C)C)[C@@H](C)O)C(=O)N[C@@H](CCCCN)C(=O)N[C@H](C(=O)N1CCC[C@H]1C(=O)N[C@@H](CO)C(=O)N[C@@H](CO)C(=O)N[C@@H](Cc1c[nH]cn1)C(=O)N[C@@H](CC(N)=O)C(=O)N[C@@H](CC(C)C)C(=O)N[C@@H](CCSC)C(=O)N[C@@H](CCCCN)C(=O)NCC(=O)NCC(=O)N[C@@H](CO)C(=O)N[C@H](C(=O)N[C@@H](CCCCN)C(=O)N[C@@H](CC(N)=O)C(=O)N[C@@H](Cc1c[nH]c2ccccc12)C(=O)N[C@@H](CO)C(=O)NCC(=O)N[C@@H](CC(N)=O)C(=O)O)[C@@H](C)O)[C@@H](C)CC [MHP1-Ac] (Ac-LMVYVVKTSIKIPSSHNLMKGGSTKNWSGN-OH) | more effective than MHP1 | more effective than MHP1 | – | – | cytotoxicity (LDH assay) (LPS-stimulated MG6 cells [1]): did not increase cytotoxicity; time post-injection until which peptide was detected in the brain ([2]; brain homogenate, last sampling 2 h): 2 h; time within which peptide was degraded in plasma ([2]; plasma): ≤ 20 min; sedimentation after incubation in 0.45% saline ([3]; 0.45% saline, 37 °C, 24 h, visual, concentration not given): experienced sedimentation; dissolution in water ([3]; water): easily dissolved in water; anti-inflammatory effects at 1 µg/ml (LPS-stimulated MG6 cells [4]; 1 µg/ml peptide): not seen; dose dependency of anti-inflammatory effects (LPS-stimulated MG6 cells [4]; 24 h, ELISA): Dose-dependent anti-inflammatory effects were observed
2 | CC[C@H](C)[C@H](NC(=O)[C@H](CO)NC(=O)[C@@H](NC(=O)[C@H](CCCCN)NC(=O)[C@@H](NC(=O)[C@@H](NC(=O)[C@H](Cc1ccc(O)cc1)NC(=O)[C@@H](NC(=O)[C@H](CCSC)NC(=O)[C@@H](N)CC(C)C)C(C)C)C(C)C)C(C)C)[C@@H](C)O)C(=O)N[C@@H](CCCCN)C(=O)N[C@H](C(=O)N1CCC[C@H]1C(=O)N[C@@H](CO)C(=O)N[C@@H](CO)C(=O)N[C@@H](Cc1c[nH]cn1)C(=O)N[C@@H](CC(N)=O)C(=O)N[C@@H](CC(C)C)C(=O)N[C@H](CCSC)C(=O)N[C@@H](CCCCN)C(=O)NCC(=O)NCC(=O)N[C@@H](CO)C(=O)N[C@H](C(=O)N[C@@H](CCCCN)C(=O)N[C@@H](CC(N)=O)C(=O)N[C@@H](Cc1c[nH]c2ccccc12)C(=O)N[C@@H](CO)C(=O)NCC(=O)N[C@@H](CC(N)=O)C(=O)O)[C@@H](C)O)[C@@H](C)CC [MHP1-DC] (H-LMVYVVKTSIKIPSSHNL[dM]KGGSTKNWSGN-OH) | not replicated | more effective than MHP1 | – | – | –
3 | CC[C@H](C)[C@H](NC(=O)[C@H](CO)NC(=O)[C@@H](NC(=O)[C@@H](CCCCN)NC(=O)[C@@H](NC(=O)[C@@H](NC(=O)[C@H](Cc1ccc(O)cc1)NC(=O)[C@@H](NC(=O)[C@H](CCSC)NC(=O)[C@@H](N)CC(C)C)C(C)C)C(C)C)C(C)C)[C@@H](C)O)C(=O)N[C@@H](CCCCN)C(=O)N[C@H](C(=O)N1CCC[C@H]1C(=O)N[C@@H](CO)C(=O)N[C@@H](CO)C(=O)N[C@@H](Cc1c[nH]cn1)C(=O)N[C@@H](CC(N)=O)C(=O)N[C@@H](CC(C)C)C(=O)N[C@@H](CCSC)C(=O)N[C@@H](CCCCN)C(=O)NCC(=O)NCC(=O)N[C@@H](CO)C(=O)N[C@H](C(=O)N[C@@H](CCCCN)C(=O)N[C@@H](CC(N)=O)C(=O)N[C@@H](Cc1c[nH]c2ccccc12)C(=O)N[C@@H](CO)C(=O)NCC(=O)N[C@@H](CC(N)=O)C(=O)O)[C@@H](C)O)[C@@H](C)CC [MHP1-DN1] (H-LMVYVV[dK]TSIKIPSSHNLMKGGSTKNWSGN-OH) | – | – | lacked anti-inflammatory effects | augmented the expression of TNF-α | –
4 | CC[C@H](C)[C@H](NC(=O)[C@H](CO)NC(=O)[C@@H](NC(=O)[C@H](CCCCN)NC(=O)[C@@H](NC(=O)[C@@H](NC(=O)[C@@H](Cc1ccc(O)cc1)NC(=O)[C@@H](NC(=O)[C@H](CCSC)NC(=O)[C@@H](N)CC(C)C)C(C)C)C(C)C)C(C)C)[C@@H](C)O)C(=O)N[C@@H](CCCCN)C(=O)N[C@H](C(=O)N1CCC[C@H]1C(=O)N[C@@H](CO)C(=O)N[C@@H](CO)C(=O)N[C@@H](Cc1c[nH]cn1)C(=O)N[C@@H](CC(N)=O)C(=O)N[C@@H](CC(C)C)C(=O)N[C@@H](CCSC)C(=O)N[C@@H](CCCCN)C(=O)NCC(=O)NCC(=O)N[C@@H](CO)C(=O)N[C@H](C(=O)N[C@@H](CCCCN)C(=O)N[C@@H](CC(N)=O)C(=O)N[C@@H](Cc1c[nH]c2ccccc12)C(=O)N[C@@H](CO)C(=O)NCC(=O)N[C@@H](CC(N)=O)C(=O)O)[C@@H](C)O)[C@@H](C)CC [MHP1-DN2] (H-LMV[dY]VVKTSIKIPSSHNLMKGGSTKNWSGN-OH) | – | – | lacked anti-inflammatory effects | augmented the expression of TNF-α | –
5 | CC[C@H](C)[C@H](NC(=O)[C@H](CO)NC(=O)[C@@H](NC(=O)[C@H](CCCCN)NC(=O)[C@@H](NC(=O)[C@@H](NC(=O)[C@H](Cc1ccc(O)cc1)NC(=O)[C@@H](NC(=O)[C@@H](CCSC)NC(=O)[C@@H](N)CC(C)C)C(C)C)C(C)C)C(C)C)[C@@H](C)O)C(=O)N[C@@H](CCCCN)C(=O)N[C@H](C(=O)N1CCC[C@H]1C(=O)N[C@@H](CO)C(=O)N[C@@H](CO)C(=O)N[C@@H](Cc1c[nH]cn1)C(=O)N[C@@H](CC(N)=O)C(=O)N[C@@H](CC(C)C)C(=O)N[C@@H](CCSC)C(=O)N[C@@H](CCCCN)C(=O)NCC(=O)NCC(=O)N[C@@H](CO)C(=O)N[C@H](C(=O)N[C@@H](CCCCN)C(=O)N[C@@H](CC(N)=O)C(=O)N[C@@H](Cc1c[nH]c2ccccc12)C(=O)N[C@@H](CO)C(=O)NCC(=O)N[C@@H](CC(N)=O)C(=O)O)[C@@H](C)O)[C@@H](C)CC [MHP1-DN3] (H-L[dM]VYVVKTSIKIPSSHNLMKGGSTKNWSGN-OH) | – | – | lacked anti-inflammatory effects | no influence | –
6 | CC[C@H](C)[C@H](NC(=O)[C@H](CO)NC(=O)[C@@H](NC(=O)[C@H](CCCCN)NC(=O)[C@@H](NC(=O)[C@@H](NC(=O)[C@H](Cc1ccc(O)cc1)NC(=O)[C@@H](NC(=O)[C@H](CCSC)NC(=O)[C@@H](N)CC(C)C)C(C)C)C(C)C)C(C)C)[C@@H](C)O)C(=O)N[C@@H](CCCCN)C(=O)N[C@H](C(=O)N1CCC[C@H]1C(=O)N[C@@H](CO)C(=O)N[C@@H](CO)C(=O)N[C@@H](Cc1c[nH]cn1)C(=O)N[C@@H](CC(N)=O)C(=O)N[C@@H](CC(C)C)C(=O)N[C@@H](CCSC)C(=O)N[C@@H](CCCCN)C(=O)NCC(=O)NCC(=O)N[C@@H](CO)C(=O)N[C@H](C(=O)N[C@@H](CCCCN)C(=O)N[C@@H](CC(N)=O)C(=O)N[C@@H](Cc1c[nH]c2ccccc12)C(=O)N[C@@H](CO)C(=O)NCC(=O)N[C@@H](CC(N)=O)C(N)=O)[C@@H](C)O)[C@@H](C)CC [MHP1-N] (H-LMVYVVKTSIKIPSSHNLMKGGSTKNWSGN-NH2) | not replicated | more effective than MHP1 | – | – | –
7 | LMVYVVKTSIKIPSSHNLMKGGSTKNWSGN | – | – | – | – | cleaved bond (Mouse (CD-1(ICR)) serum): L-M2 and M2-V and V-Y4 and Y4-V, major and K7-T, major and Met19-K; fragment found (Mouse (CD-1(ICR)) serum): LMVYVVKTSIKIPSSHNLMKGGSTKNWSGN-Oxygen
